Experimental data: US5523308A, “Peptidyl heterocycles useful in the treatment of thrombin related disorders” (priority 1995, dated 1996)
pIC50, pKi: −log10 of the molar value. Like-named read-outs stand apart in the source and are kept apart here.

Key:
Bovine type 1 trypsin = molecular target: T1, Bovine type 1 trypsin (Bos taurus, UniProt P00760); test: Trypsin-catalyzed hydrolysis of chromogenic substrate Spectrozyme TRY (in vitro enzyme assay); type: biochemical; settings: 3.2 U/ml trypsin, 0.1-0.3 mM Spectrozyme TRY; read-out: Trp IC50
T1 construct: purchased Sigma
T1 sequence (P00760 24-246): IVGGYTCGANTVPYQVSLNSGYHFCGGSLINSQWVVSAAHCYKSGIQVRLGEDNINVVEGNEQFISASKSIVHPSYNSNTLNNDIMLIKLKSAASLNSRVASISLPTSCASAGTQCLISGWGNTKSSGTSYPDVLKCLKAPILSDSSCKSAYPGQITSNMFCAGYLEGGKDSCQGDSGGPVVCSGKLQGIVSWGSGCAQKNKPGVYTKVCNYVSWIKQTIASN
Description: The compounds of the invention were tested for their ability to inhibit thrombin mediated hydrolysis. An in vitro enzyme assay was performed as well as an ex vivo assay. In addition, the compounds were tested in vitro for their ability to inhibit trypsin, as an indication of their selectivity.
Trypsin-catalyzed hydrolysis rates were measured using the same method as the thrombin procedure.
The compound numbers in the table correspond to the examples described hereinafter.

[1] = Ex vivo i.v. assay for duration of action: time to half plasma elimination from thrombin inhibition in rat plasma; settings: male Long Evans rats, i.v. via femoral vein, from slope of Vo vs. time
Description: (§1) An ex vivo assay was conducted to determine the duration of action of the compounds of Formula I. For this i.v. assay male rats (Long Evans, 350-500 g) were implanted with a teflon cannulae via the femoral artery while under anesthesia (pentobarbital i.p., 35 mg/kg). […] The animals were allowed to recover for at least 24 h after the surgical procedure.
(§2) The test compound was dispersed in water and delivered to the animal (0.25 mL) via the femoral vein. […] A plasma sample was obtained by centrifuging the blood at 10,000 rpm for 5 min. This sample is analyzed for thrombin inhibition using the chromogenic assay, described below.
(§3) Datum was collected over a 30 min period and the initial rate of substrate hydrolysis (V0 (mOD/min)) was calculated with an analysis program (Softmax, Molecular Devices).
(§4) The time to half plasma elimination (t 1/2) was calculated from the slope of Vo vs. time, using the following equation: t 1/2=-1.6 slope.

human alpha-thrombin = molecular target: T2, human alpha-thrombin (Homo sapiens, UniProt P00734); test: Thrombin-catalyzed hydrolysis of chromogenic substrate Spectozyme TH (in vitro enzyme assay); type: biochemical; settings: 1 nM thrombin, 37° C., pH 7.4; for pIC50: 50 μM Spectozyme TH, read-out: Thr IC50
T2 construct: commercial human alpha-thrombin (American Diagnostica); purchased American Diagnostica
Description: Thrombin-catalyzed hydrolysis rates were measured spectrophotometrically using commercial human alpha-thrombin (American Diagnostica), a chromogenic substrate (Spectozyme® TH (H-D-HHT-Ala-Arg-pNA.2AcOH), American Diagnostica) in aqueous buffer (10 mM Tris, 10 mM Hepes, 150 mM NaCl, 0.1% PEG; pH 7.4), and a microplate reader (Molecular Devices). Changes in absorbance at 405 nm were monitored (Softmax, Molecular Devices), upon addition of enzyme, both with and without inhibitor present at 37° C. over 30 minutes. […] Michaelis-Menton kinetics were applied to the initial reaction slopes. […] Michaelis-Menton kinetics were applied to the initial reaction slopes using the program K.Cat (Bio Metallics Inc.).

[2] = Ex vivo bioavailability assay, i.v. and p.o. dosing, thrombin inhibition in rat plasma; settings: male rats, p.o. vs i.v., extrapolated drug in plasma vs. time
Description: Bioavailability was determined by an ex vivo assay which incorporated hydrolysis rates from drug administered both i.v. and p.o. In this assay male rats were prepared as described above with a teflon tube implanted in their femoral artery. […] The test compound was dispersed in water (0.3-3.0 mg/mL final conc.) and delivered to the animals (0.25 mL) either i.v. or p.o..
A standard curve was generated by adding of drug or vehicle (100 μL) to whole blood (900 μL) followed by incubating (5 min) and centrifuging to obtain plasma. The percentage of thrombin inhibition was calculated by comparing the V0 of the vehicle to that of the drug treated samples. Datum from several runs were normalized with a statistical package (SAS) to generate a standard curve.
The percentage of thrombin inhibition in the treated animals was calculated by comparing the V0 prior to treatment with the V0 obtained from samples collected after treatment. The percent inhibition was applied to the standard curve (generated above) using the statistical package (SAS) and the quantity of drug in the sample was extrapolated.
Bioavailability (Bioavail.) was calculated from the plots of the extrapolated drug in sample vs. time for both i.v. and p.o. administration using the following equation:
%Bioavail. =(i.v. dose administered/p.o. dose administered)×(area under p.o. curve/area under curve i.v.)

[3] = rat, in vivo, iv
Description: as §1, §2, §3, §4

trypsin = settings: pancreatic agents quoted for comparison; read-out: IC50 (trypsin inhibitors used clinically); cited from earlier work

SMILES	pIC50 (Bovine type 1 trypsin)	t1/2 (time to half plasma elimination) [3]	pIC50 (human alpha-thrombin)	other results
CNC(C(=O)N1CCC[C@H]1C(=O)N[C@@H](CCCNC(=N)N)C(=O)c1nc2ccccc2s1)c1ccccc1 (single isomer, unassigned) [Compound 34]	8.52	–	–	t1/2 (time to half plasma elimination) [1]: 26 min
CN[C@H](Cc1ccccc1)C(=O)N1CCC[C@H]1C(=O)N[C@@H](CCCNC(=N)N)C(=O)c1nc2ccccc2s1 [Compound 1, N-METHYL-D-PHENYLALANYL-N-[4-[(AMINOIMINOMETHYL)AMINO]-1S-[(BENXOTHIAZOL-2- YL)CARBONYL]BUTYL]-L-PROLINAMIDE]	–	19 min	–	pKi (human alpha-thrombin; 5-100 μM Spectozyme TH, read-out: Thr Ki (listed in place of the IC50)): 9.64; Bioavail, [2]: 1.2%
CNC(Cc1ccccc1)C(=O)N1CCCC1C(=O)NC(CCCNC(=N)N)C(=O)c1nccs1 (stereo not drawn) [Compound 4]	8.22	16 min	7.72	–
CCOC(=O)c1csc(C(=O)[C@H](CCCNC(=N)N)NC(=O)[C@@H]2CCCN2C(=O)[C@@H](Cc2ccccc2)NC)n1 [Compound 19, N-METHYL-D-PHENYLALANYL-N-[4-[(AMINOIMINOMETHYL)AMINO]-1S-[(4-ETHOXYCARBONY LTHIAZOL-2-YL)CARBONYL]BUTYL]-L-PROLINAMIDE]	8.30	14 min	7.59	–
CNC(Cc1ccccc1)C(=O)N1CCCC1C(=O)NC(CCCNC(=N)N)C(=O)c1nc2ccccc2[nH]1 (stereo not drawn) [Compound 21]	7.29	5 min	7.62	–
CN[C@H](Cc1ccccc1)C(=O)N1CCC[C@H]1C(=O)N[C@@H](CCCNC(=N)N)C(=O)c1nc2ccc(O)cc2s1 [Compound 25, N-METHYL-D-PHENYLALANYL-N-[4-[(AMINOIMINOMETHYL)AMINO]-1S-[(6-HYDROXYBENXOT HIAZOL-2-YL)CARBONYL]BUTYL]-L-PROLINAMIDE]	–	–	–	t1/2 (time to half plasma elimination) [1]: 14 min
CN[C@H](Cc1c(F)c(F)c(F)c(F)c1F)C(=O)N1CCC[C@H]1C(=O)N[C@@H](CCCNC(=N)N)C(=O)c1nc2ccccc2s1 [Compound 30]	8.70	6 min	7.54	–
CC(=O)N[C@H](Cc1ccccc1)C(=O)N1CCC[C@H]1C(=O)N[C@@H](CCCNC(=N)N)C(=O)c1nc2ccccc2s1.O=C(O)C(F)(F)F [Compound 35]	8.70	11 min	6.70	–
CN[C@@H](C(=O)N1CCC[C@H]1C(=O)N[C@@H](CCCNC(=N)N)C(=O)c1nc2ccccc2s1)C1CCCCC1 [Compound 37, N-METHYL-D-CYCLOHEXYLGLYCYL-N-[4-[(AMINOIMINOMETHYL)AMINO]-1S-[(BENXOTHIAZO L-2-YL)CARBONYL]BUTYL]-L-PROLINAMIDE]	9.00	42 min	–	–
CN[C@H](Cc1ccccc1)C(=O)N1CCC[C@H]1C(=O)N[C@@H](CCCNC(=N)N)C(=O)c1nc2c(s1)CCCC2 [Compound 51, N-METHYL-D-PHENYLALANYL-N-[4-[(AMINOIMINOMETHYL)AMINO]-1S-[(4,5,6,7-TETRAHY DROBENZOTHIAZOL-2-YL)CARBONYL]BUTYL]-L-PROLINAMIDE]	8.15	17 min	7.77	–
CN[C@H](Cc1ccccc1)C(=O)N1CCC[C@H]1C(=O)N[C@@H](CCCNC(=N)N)C(=O)c1nc2ccc3ccccc3c2s1 [Compound 52, N-METHYL-D-PHENYLALANYL-N-[4-[(AMINOIMINOMETHYL)AMINO]-1S-[(NAPTHO[2,1-D]TH IAZOL-2-YL)CARBONYL]BUTYL]-L-PROLINAMIDE]	8.30	8 min	–	–
CN[C@H](Cc1ccccc1)C(=O)N1CCC[C@H]1C(=O)N[C@@H](CCCNC(=N)N)C(=O)c1nc(C(=O)O)cs1 [Compound 54, N-METHYL-D-PHENYLALANYL-N-[4-[(AMINOIMINOMETHYL)AMINO]-1S-[(4-CARBOXYTHIAZO L-2-YL)CARBONYL]BUTYL]-L-PROLINAMIDE]	7.89	15 min	6.96	–
CN(C)C(=O)COC(=O)Cc1ccc(OC(=O)c2ccc(NC(=N)N)cc2)cc1 [camostat mesilate]	–	–	–	pIC50 (trypsin): 8.00
N=C(N)c1ccc2cc(OC(=O)c3ccc(N=C(N)N)cc3)ccc2c1 [nafamostat]	–	–	–	pIC50 (trypsin): 7.89
